Experiments:
hACSL5 [1] = biological target: T1, hACSL5 (Homo sapiens (Human), UniProt Q9ULC5); assay: Cell-based assay (CBA) with B12FA in hACSL5-transfected Expi293F / FlpIn TRex293 cells; conditions: hACSL5-expressing cells
Description: To assess the cell penetration and cellular activity of the compounds, a cell-based assay (CBA) was used to detect compound potency in living cells. The assay utilized the fluorescent fatty acid analogue B12FA, a boron-dipyrromethene (BODIPY™) labelled C12 fatty acid that can be incorporated into glycerophosphocholine in the cytoplasmic oil droplets of live cells. A concentration-dependent, red-shifted fluorescence can be induced by the formation of BODIPY™ excimers in the oil droplets.
Expi293F cells transfected with full length hACSL5 plasmid were selected using 1 mg/mL G418 culture medium and clones were selected by in vitro whole cell lysate (WCL) assay. The cell passage number used in the Expi293 CBA assay could not be used beyond 10 passages due to a decrease in hACSL5 expression. Therefore, a CBA using FlpIn TRex293 cells for inducible expression of hACSL5 was also established.
FlpIn TRex293 cells transfected with hACSL5 plasmid were selected in culture medium containing 15 µg/ml Blasticidin and 150 µg/ml Hygromycin. For cell-based assays, stable transfected hACSL5 cells were seeded onto a 96-well plate at 30-50k/well and incubated overnight. For the inducible system, […] tetracycline (or doxycycline) was added to culture medium of FlpIn TRex293 hACSL5 cells on the day before the assay to induce expression of hACSL5. The next day, growth media was replaced with culture medium without FBS and glucose (DMEM glucose (-), ThermoFisher) and cells were incubated for an hour before treating cells with serial diluted compounds containing 20 µM B12FA (ThermoFisher) for another 3 hours in the above medium. Cells were then fixed in 4% formaldehyde for 10 minutes and washed twice with PBS. The plate was read using the Cytation 5 imaging system with an excitation wavelength of 485 nm and observed emissions at 630 nm and 520 nm. The percentage of inhibition was calculated as: […]
wherein A is the ratio of emission intensities at 630 nm/520 nm in the absence of inhibitor (maximum ratio); B is the ratio of the intensities at those wavelengths in the presence of […] of the test compound or non-induced cells (minimum ratio); and X is the ratio of the intensities at a given compound concentration.
Concentration-response titration points for each compound tested were filled to the Hill equation yielding concentrations of half maximal inhibition […] and maximal inhibition values.
Target sequence in this assay (Q9ULC5 whole entry): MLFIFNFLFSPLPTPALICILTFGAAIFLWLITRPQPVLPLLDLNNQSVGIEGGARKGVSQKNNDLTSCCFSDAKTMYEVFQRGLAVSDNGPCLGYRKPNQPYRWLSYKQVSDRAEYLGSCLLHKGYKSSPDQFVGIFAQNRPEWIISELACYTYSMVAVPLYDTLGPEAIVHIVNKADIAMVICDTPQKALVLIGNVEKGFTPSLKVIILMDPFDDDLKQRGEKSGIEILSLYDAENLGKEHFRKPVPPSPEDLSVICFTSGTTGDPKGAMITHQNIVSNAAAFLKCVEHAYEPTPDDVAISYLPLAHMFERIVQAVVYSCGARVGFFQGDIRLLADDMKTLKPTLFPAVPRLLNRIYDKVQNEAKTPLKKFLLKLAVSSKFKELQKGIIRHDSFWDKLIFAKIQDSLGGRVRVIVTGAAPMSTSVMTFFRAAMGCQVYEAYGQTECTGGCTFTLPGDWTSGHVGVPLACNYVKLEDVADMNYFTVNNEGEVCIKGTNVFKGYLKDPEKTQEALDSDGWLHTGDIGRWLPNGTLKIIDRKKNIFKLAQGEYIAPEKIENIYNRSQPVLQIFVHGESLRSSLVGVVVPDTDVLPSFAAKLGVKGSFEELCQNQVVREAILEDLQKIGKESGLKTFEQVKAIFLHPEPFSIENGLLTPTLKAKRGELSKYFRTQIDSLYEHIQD

hACSL5 [2] = biological target: T1, hACSL5; assay: Human ACSL5 coupled enzyme Amplex Red assay; assay type: biochemical; conditions: read-out: hACSL5 IC50
How it was run: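 C-terminally His-tagged ACSL5 (33-683) from sf9 cells, 20 nM, was preincubated with compound in MOPS-NaOH pH 7.6 with MgCl2, peroxidase and acyl-CoA oxidase. Reactions were started with 25 μM oleate, 30 μM CoA, 1 mM ATP and 50 μM Amplex Red; fluorescence (535/590 nm) after 10 minutes at 25° C. was fitted to the Hill equation for IC50 and maximal inhibition.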
Target sequence in this assay (Q9ULC5 33-683): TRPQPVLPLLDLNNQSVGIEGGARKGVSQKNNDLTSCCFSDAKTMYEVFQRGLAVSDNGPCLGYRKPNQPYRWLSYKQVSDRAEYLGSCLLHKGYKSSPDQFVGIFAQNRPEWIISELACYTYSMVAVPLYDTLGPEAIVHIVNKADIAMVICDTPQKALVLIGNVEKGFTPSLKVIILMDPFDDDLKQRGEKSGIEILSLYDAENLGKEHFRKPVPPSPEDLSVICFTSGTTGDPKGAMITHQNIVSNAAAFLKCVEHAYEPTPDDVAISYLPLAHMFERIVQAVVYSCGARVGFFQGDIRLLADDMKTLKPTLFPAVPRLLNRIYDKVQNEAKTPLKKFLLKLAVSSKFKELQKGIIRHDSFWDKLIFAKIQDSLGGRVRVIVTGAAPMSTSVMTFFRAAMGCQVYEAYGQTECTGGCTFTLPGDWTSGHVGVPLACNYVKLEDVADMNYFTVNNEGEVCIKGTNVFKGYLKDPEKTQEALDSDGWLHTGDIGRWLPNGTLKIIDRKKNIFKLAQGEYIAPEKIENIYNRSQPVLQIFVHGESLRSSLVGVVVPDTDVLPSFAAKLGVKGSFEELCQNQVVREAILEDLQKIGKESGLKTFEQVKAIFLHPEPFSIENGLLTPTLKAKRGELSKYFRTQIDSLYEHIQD

Row | Structure (SMILES) | IC50 (hACSL5 [1]) | IC50 (hACSL5 [2])
1 | CC[C@@H](Oc1ccc(C(=O)NS(=O)(=O)N2CCN(C)[C@H](C)C2)c(F)c1F)c1ccc(OCC2CC2)cn1 [4-((R)-1-(5-(cyclopropylmethoxy)pyridin-2-yl)propoxy)-N-(((R)-3,4-dimethylpiperazin-1-yl)sulfonyl)-2,3-difluorobenzamide] | < 100 nM | < 100 nM
2 | CC[C@@H](Oc1ccc(C(=O)NS(=O)(=O)N2CCN(C)[C@@H](C)C2)c(F)c1F)c1ccc(OCC2CC2)cn1 [4-((R)-1-(5-(cyclopropylmethoxy)pyridin-2-yl)propoxy)-N-(((S)-3,4-dimethylpiperazin-1-yl)sulfonyl)-2,3-difluorobenzamide] | < 100 nM | < 100 nM
3 | CC[C@@H](Oc1ccc(C(=O)NS(=O)(=O)N2CCN(C)CC2(C)C)c(F)c1F)c1ccc(Oc2ccccn2)cn1 [(R)-2,3-difluoro-4-(1-(5-(pyridin-2-yloxy)pyridin-2-yl)propoxy)-N-((2,2,4-trimethylpiperazin-1-yl)sulfonyl)benzamide] | < 100 nM | < 100 nM
4 | CC[C@@H](Oc1ccc(C(=O)NS(=O)(=O)C2CCN(C)CC2)c(F)c1F)c1ccc(Oc2ccccn2)cn1 [(R)-2,3-difluoro-N-((1-methylpiperidin-4-yl)sulfonyl)-4-(1-(5-(pyridin-2-yloxy)pyridin-2-yl)propoxy)benzamide] | 100 to 500 nM | < 100 nM
5 | CC[C@@H](Oc1ccc(C(=O)NS(=O)(=O)N2CCN(CC(C)(C)F)CC2)c(F)c1F)c1ccc(Oc2ccccn2)cn1 [(R)-2,3-difluoro-N-((4-(2-fluoro-2-methylpropyl)piperazin-1-yl)sulfonyl)-4-(1-(5-(pyridin-2-yloxy)pyridin-2-yl)propoxy)benzamide] | < 100 nM | < 100 nM
6 | CC[C@@H](Oc1ccc(C(=O)NS(=O)(=O)N2CCN(CC(C)(C)O)CC2)c(F)c1F)c1ccc(Oc2ccccn2)cn1 [(R)-2,3-difluoro-N-((4-(2-hydroxy-2-methylpropyl)piperazin-1-yl)sulfonyl)-4-(1-(5-(pyridin-2-yloxy)pyridin-2-yl)propoxy)benzamide] | < 100 nM | < 100 nM
7 | CC[C@@H](Oc1ccc(C(=O)NS(=O)(=O)N2CCC(OC3CCN(CCOC)CC3)CC2)c(F)c1F)c1ccc(Oc2ccccn2)cn1 [(R)-2,3-difluoro-N-((4-((1-(2-methoxyethyl)piperidin-4-yl)oxy)piperidin-1-yl)sulfonyl)-4-(1-(5-(pyridin-2-yloxy)pyridin-2-yl)propoxy)benzamide] | < 100 nM | < 100 nM
8 | CC[C@@H](Oc1ccc(C(=O)NS(=O)(=O)N2CCC(OC3CCN(C)CC3)CC2)c(F)c1F)c1cc(Oc2ccccn2)ccn1 [(R)-2,3-difluoro-N-((4-((1-methylpiperidin-4-yl)oxy)piperidin-1-yl)sulfonyl)-4-(1-(4-(pyridin-2-yloxy)pyridin-2-yl)propoxy)benzamide] | 100 to 500 nM | < 100 nM
9 | CC[C@@H](Oc1ccc(C(=O)NS(=O)(=O)N2CCC(OC3CCN(C)CC3)CC2)c(F)c1F)c1ccc(Oc2ccccn2)cn1 [(R)-2,3-difluoro-N-((4-((1-methylpiperidin-4-yl)oxy)piperidin-1-yl)sulfonyl)-4-(1-(5-(pyridin-2-yloxy)pyridin-2-yl)propoxy)benzamide] | < 100 nM | < 100 nM
10 | CC[C@@H](Oc1ccc(C(=O)NS(=O)(=O)N2CCN(C)CC2)c(F)c1F)c1cc(Oc2ccccn2)ccn1 [(R)-2,3-difluoro-N-((4-methylpiperazin-1-yl)sulfonyl)-4-(1-(4-(pyridin-2-yloxy)pyridin-2-yl)propoxy)benzamide] | 100 to 500 nM | < 100 nM
11 | CC[C@@H](Oc1ccc(C(=O)NS(=O)(=O)N2CCC(OC3CCN(C)CC3)CC2)c(F)c1F)c1cccc(OCC2CC2)c1 [(R)-4-(1-(3-(cyclopropylmethoxy)phenyl)propoxy)-2,3-difluoro-N-((4-((1-methylpiperidin-4-yl)oxy)piperidin-1-yl)sulfonyl)benzamide] | 100 to 500 nM | 100 to 500 nM
12 | CC[C@@H](Oc1ccc(C(=O)NS(=O)(=O)c2ccc(OC3CCN(C)CC3)cc2)c(F)c1F)c1cc(OCC2CC2)ccn1 [(R)-4-(1-(4-(cyclopropylmethoxy)pyridin-2-yl)propoxy)-2,3-difluoro-N-((4-((1-methylpiperidin-4-yl)oxy)phenyl)sulfonyl)benzamide] | 100 to 500 nM | 100 to 500 nM
13 | CC[C@@H](Oc1ccc(C(=O)NS(=O)(=O)N2CCC(OC3CCN(C)CC3)CC2)c(F)c1F)c1cc(OCC2CC2)ccn1 [(R)-4-(1-(4-(cyclopropylmethoxy)pyridin-2-yl)propoxy)-2,3-difluoro-N-((4-((1-methylpiperidin-4-yl)oxy)piperidin-1-yl)sulfonyl)benzamide] | 100 to 500 nM | 100 to 500 nM
14 | CC[C@@H](Oc1ccc(C(=O)NS(=O)(=O)N2CCN(C)CC2)c(F)c1F)c1cc(OCC2CC2)ccn1 [(R)-4-(1-(4-(cyclopropylmethoxy)pyridin-2-yl)propoxy)-2,3-difluoro-N-((4-methylpiperazin-1-yl)sulfonyl)benzamide] | 100 to 500 nM | 100 to 500 nM
15 | CC[C@@H](Oc1ccc(C(=O)NS(=O)(=O)c2ccc(OCCN(C)C)cc2)c(F)c1F)c1cc(OCC2CC2)ccn1 [(R)-4-(1-(4-(cyclopropylmethoxy)pyridin-2-yl)propoxy)-N-((4-(2-(dimethylamino)ethoxy)phenyl)sulfonyl)-2,3-difluorobenzamide] | 100 to 500 nM | 100 to 500 nM
16 | CC[C@@H](Oc1ccc(C(=O)NS(=O)(=O)C2CCN(C)CC2)c(F)c1F)c1ccc(OCC2CC2)cn1 [(R)-4-(1-(5-(cyclopropylmethoxy)pyridin-2-yl)propoxy)-2,3-difluoro-N-((1-methylpiperidin-4-yl)sulfonyl)benzamide] | > 500 nM | 100 to 500 nM
17 | CC[C@@H](Oc1ccc(C(=O)NS(=O)(=O)N2CCN(C)CC2(C)C)c(F)c1F)c1ccc(OCC2CC2)cn1 [(R)-4-(1-(5-(cyclopropylmethoxy)pyridin-2-yl)propoxy)-2,3-difluoro-N-((2,2,4-trimethylpiperazin-1-yl)sulfonyl)benzamide] | < 100 nM | < 100 nM
18 | CC[C@@H](Oc1ccc(C(=O)NS(=O)(=O)c2cnc(OC3CCN(C)CC3)nc2)c(F)c1F)c1ccc(OCC2CC2)cn1 [(R)-4-(1-(5-(cyclopropylmethoxy)pyridin-2-yl)propoxy)-2,3-difluoro-N-((2-((1-methylpiperidin-4-yl)oxy)pyrimidin-5-yl)sulfonyl)benzamide] | > 500 nM | < 100 nM
19 | CC[C@@H](Oc1ccc(C(=O)NS(=O)(=O)N2CCN(C)C(C)(C)C2)c(F)c1F)c1ccc(OCC2CC2)cn1 [(R)-4-(1-(5-(cyclopropylmethoxy)pyridin-2-yl)propoxy)-2,3-difluoro-N-((3,3,4-trimethylpiperazin-1-yl)sulfonyl)benzamide] | < 100 nM | < 100 nM
20 | CC[C@@H](Oc1ccc(C(=O)NS(=O)(=O)c2ccc(OCCN3CCN(C)CC3)cc2)c(F)c1F)c1ccc(OCC2CC2)cn1 [(R)-4-(1-(5-(cyclopropylmethoxy)pyridin-2-yl)propoxy)-2,3-difluoro-N-((4-(2-(4-methylpiperazin-1-yl)ethoxy)phenyl)sulfonyl)benzamide] | 100 to 500 nM | < 100 nM
21 | CC[C@@H](Oc1ccc(C(=O)NS(=O)(=O)c2ccc(OCCNC3COC3)cc2)c(F)c1F)c1ccc(OCC2CC2)cn1 [(R)-4-(1-(5-(cyclopropylmethoxy)pyridin-2-yl)propoxy)-2,3-difluoro-N-((4-(2-(oxetan-3-ylamino)ethoxy)phenyl)sulfonyl)benzamide] | 100 to 500 nM | < 100 nM
22 | CC[C@@H](Oc1ccc(C(=O)NS(=O)(=O)c2ccc(OCCN3CCCCC3)cc2)c(F)c1F)c1ccc(OCC2CC2)cn1 [(R)-4-(1-(5-(cyclopropylmethoxy)pyridin-2-yl)propoxy)-2,3-difluoro-N-((4-(2-(piperidin-1-yl)ethoxy)phenyl)sulfonyl)benzamide] | < 100 nM | < 100 nM
23 | CC[C@@H](Oc1ccc(C(=O)NS(=O)(=O)c2ccc(OCCN3CCCC3)cc2)c(F)c1F)c1ccc(OCC2CC2)cn1 [(R)-4-(1-(5-(cyclopropylmethoxy)pyridin-2-yl)propoxy)-2,3-difluoro-N-((4-(2-(pyrrolidin-1-yl)ethoxy)phenyl)sulfonyl)benzamide] | 100 to 500 nM | < 100 nM

Source: patent publication US20250275959A1, “COMPOUNDS AND METHODS OF THEIR USE” (LEXICON PHARMACEUTICALS, INC., priority 2024, published 2025)
